Assay results from PubChem BioAssay (NCI).
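Tested at 5 concentrations; 48 h exposure; 96-well plates; endpoints linearly interpolated, else capped at highest concentration. GI50 marks 50% less growth. TGI: total growth inhibition.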

Experiments:
Experiment in all cases: inhibition of tumour cell growth, NCI panel, 48 h
[1] = test system: HOP-92 NSCLC
[2] = test system: MDA-MB-435
[3] = test system: SF-268 CNS
[4] = test system: EKVX NSCLC
[5] = test system: HL-60(TB) leukemia
[6] = test system: HCC-2998 colon
[7] = test system: SW-620 colon
[8] = test system: MOLT-4 leukemia
[9] = test system: MDA-MB-231 breast
[10] = test system: UO-31 renal
[11] = test system: SF-295 CNS
[12] = test system: SK-MEL-2 melanoma
[13] = test system: SNB-75 CNS
[14] = test system: OVCAR-5 ovarian
[15] = test system: NCI-H460 lung
[16] = test system: SR leukemia
[17] = test system: UACC-62 melanoma
[18] = test system: T-47D breast
[19] = test system: HT29 colon
[20] = test system: 786-0 renal
[21] = test system: SK-MEL-28 melanoma
[22] = test system: SF-539 CNS
[23] = test system: ACHN renal
[24] = test system: A549 NSCLC
[25] = test system: HCT-116 colon
[26] = test system: SN12C renal
[27] = test system: HCT-15 colon
[28] = test system: RXF 393 renal
[29] = test system: CAKI-1 renal
[30] = test system: LOX IMVI melanoma
[31] = test system: NCI-H23 lung
[32] = test system: SK-MEL-5 melanoma
[33] = test system: OVCAR-4 ovarian
[34] = test system: A498 renal
[35] = test system: DU-145 prostate
[36] = test system: OVCAR-8 ovarian
[37] = test system: HOP-62 NSCLC
[38] = test system: MDA-MB-468 breast
[39] = test system: COLO 205 colon
[40] = test system: U251 CNS
[41] = test system: OVCAR-3 ovarian
[42] = test system: CCRF-CEM leukemia
[43] = test system: UACC-257 melanoma
[44] = test system: MCF7 breast
[45] = test system: IGROV1 ovarian
[46] = test system: NCI-H226 lung
[47] = test system: TK-10 renal
[48] = test system: NCI/ADR-RES ovarian
[49] = test system: NCI-H522 lung
[50] = test system: K-562 leukemia
[51] = test system: BT-549 breast
[52] = test system: SK-OV-3 ovarian
[53] = test system: RPMI-8226 leukemia
[54] = test system: SNB-19 CNS
[55] = test system: MALME-3M melanoma
[56] = test system: PC-3 prostate
[57] = test system: M14 melanoma
[58] = test system: KM12 colon
[59] = test system: HS 578T breast

CN1CCc2c(sc3ncnc(N/N=C/c4cccc(Cl)c4Cl)c23)C1
GI50 [1]: 4.92 µM | TGI [1]: > 24 µM | GI50 [2]: 13.6 µM | TGI [2]: > 24 µM | GI50 [3]: 10.7 µM | TGI [3]: > 24 µM | GI50 [4]: 5.09 µM | TGI [4]: 17.6 µM | GI50 [5]: 4.01 µM | TGI [5]: 10 µM | GI50 [6]: 4.47 µM | TGI [6]: 10.7 µM | GI50 [7]: 7.79 µM | TGI [7]: > 24 µM | GI50 [8]: 7.65 µM | TGI [8]: > 24 µM | GI50 [9]: 3.88 µM | TGI [9]: 8.01 µM | GI50 [10]: 6.39 µM | TGI [10]: > 24 µM | GI50 [11]: 3.82 µM | TGI [11]: 8.23 µM | GI50 [12]: > 24 µM | TGI [12]: > 24 µM | GI50 [13]: 5.12 µM | TGI [13]: 21.4 µM | GI50 [14]: 8.14 µM | TGI [14]: > 24 µM | GI50 [15]: 7.54 µM | TGI [15]: > 24 µM | GI50 [16]: 3.54 µM | TGI [16]: > 24 µM | GI50 [17]: > 24 µM | TGI [17]: > 24 µM | GI50 [18]: 5.55 µM | TGI [18]: 18.3 µM | GI50 [19]: 4.16 µM | TGI [19]: 9.55 µM | GI50 [20]: 4.79 µM | TGI [20]: 10 µM | GI50 [21]: 13.7 µM | TGI [21]: > 24 µM | GI50 [22]: 3.83 µM | TGI [22]: 7.3 µM | GI50 [23]: 3.68 µM | TGI [23]: 7.89 µM | GI50 [24]: 7.79 µM | TGI [24]: > 24 µM | GI50 [25]: 4.49 µM | TGI [25]: 11.2 µM | GI50 [26]: 5.58 µM | TGI [26]: 16.8 µM | GI50 [27]: 4.76 µM | TGI [27]: 17.1 µM | GI50 [28]: 3.19 µM | TGI [28]: 12.3 µM | GI50 [29]: 4.49 µM | TGI [29]: 11.4 µM | GI50 [30]: 3.52 µM | TGI [30]: 6.83 µM | GI50 [31]: 5.24 µM | TGI [31]: 15.4 µM | GI50 [32]: 12.9 µM | TGI [32]: > 24 µM | GI50 [33]: 6.54 µM | TGI [33]: > 24 µM | GI50 [34]: > 24 µM | TGI [34]: > 24 µM | GI50 [35]: 8.34 µM | TGI [35]: > 24 µM | GI50 [36]: 5.81 µM | TGI [36]: 17.8 µM | GI50 [37]: 4.45 µM | TGI [37]: 10.7 µM | GI50 [38]: 3.19 µM | TGI [38]: 10.6 µM | GI50 [39]: 4.34 µM | TGI [39]: 9.78 µM | GI50 [40]: 4.83 µM | TGI [40]: 10.8 µM | GI50 [41]: 4.77 µM | TGI [41]: 13.8 µM | GI50 [42]: 4.41 µM | TGI [42]: > 24 µM | GI50 [43]: > 24 µM | TGI [43]: > 24 µM | GI50 [44]: 4.89 µM | TGI [44]: 17.6 µM | GI50 [45]: 5.68 µM | TGI [45]: 15.4 µM | GI50 [46]: 11.6 µM | TGI [46]: > 24 µM | GI50 [47]: 5.5 µM | TGI [47]: 18.2 µM | GI50 [48]: 4.76 µM | TGI [48]: 15.3 µM | GI50 [49]: 9.89 µM | TGI [49]: > 24 µM | GI50 [50]: 4.42 µM | TGI [50]: 15.1 µM | GI50 [51]: 4.13 µM | TGI [51]: > 24 µM | GI50 [52]: > 24 µM | TGI [52]: > 24 µM | GI50 [53]: 6.69 µM | TGI [53]: > 24 µM | GI50 [54]: 5.61 µM | TGI [54]: 18.2 µM | GI50 [55]: 7.15 µM | TGI [55]: > 24 µM | GI50 [56]: > 24 µM | TGI [56]: > 24 µM | GI50 [57]: 12.8 µM | TGI [57]: > 24 µM | GI50 [58]: > 24 µM | TGI [58]: > 24 µM | GI50 [59]: 6.56 µM | TGI [59]: 22.9 µM

COc1ccc2oc3c4[nH]c5ccccc5c4c4c(c3c2c1)C(=O)N(C(=O)OC(C)(C)C)C4=O
GI50 [1]: 2.64 µM | TGI [1]: 41.3 µM | GI50 [2]: 1.43 µM | TGI [2]: 18.3 µM | GI50 [3]: 3.11 µM | TGI [3]: 41.6 µM | GI50 [4]: 3.33 µM | TGI [4]: 32.2 µM | GI50 [5]: 2.28 µM | TGI [5]: 9.07 µM | GI50 [6]: 3.98 µM | TGI [6]: > 100 µM | GI50 [7]: 2.33 µM | TGI [7]: > 100 µM | GI50 [8]: 1.47 µM | TGI [8]: 5.01 µM | GI50 [9]: 6.45 µM | TGI [9]: > 100 µM | GI50 [10]: 0.9 µM | TGI [10]: 25.8 µM | GI50 [11]: 2.62 µM | TGI [11]: 10.9 µM | GI50 [12]: 2.84 µM | TGI [12]: 10.2 µM | GI50 [13]: 3.07 µM | TGI [13]: 33.8 µM | GI50 [14]: 2.06 µM | TGI [14]: 31 µM | GI50 [15]: 2.32 µM | TGI [15]: > 100 µM | GI50 [16]: 1.59 µM | TGI [16]: > 100 µM | GI50 [17]: 2.4 µM | TGI [17]: 11.9 µM | GI50 [18]: 1.28 µM | TGI [18]: 7.23 µM | GI50 [19]: 2.98 µM | TGI [19]: > 100 µM | GI50 [20]: 3.65 µM | TGI [20]: > 100 µM | GI50 [21]: 1.67 µM | TGI [21]: 5.18 µM | GI50 [22]: 3.12 µM | TGI [22]: 11.5 µM | GI50 [23]: 1.49 µM | TGI [23]: 9.22 µM | GI50 [24]: 2.84 µM | TGI [24]: 49.3 µM | GI50 [25]: 3.06 µM | TGI [25]: 24.2 µM | GI50 [26]: 2.25 µM | TGI [26]: 37.2 µM | GI50 [27]: 2.12 µM | TGI [27]: 10.4 µM | GI50 [28]: 3.12 µM | TGI [28]: 19.2 µM | GI50 [29]: 2.59 µM | TGI [29]: 37.4 µM | GI50 [30]: 3.05 µM | TGI [30]: 14.1 µM | GI50 [31]: 2.1 µM | TGI [31]: 10.6 µM | GI50 [32]: 4.09 µM | TGI [32]: 16.1 µM | GI50 [33]: 4.18 µM | TGI [33]: 89.2 µM | GI50 [34]: 1.47 µM | TGI [34]: 9.77 µM | GI50 [35]: 3.26 µM | TGI [35]: > 100 µM | GI50 [36]: 2.4 µM | TGI [36]: 11.1 µM | GI50 [37]: 2.45 µM | TGI [37]: 12.2 µM | GI50 [38]: 2.84 µM | TGI [38]: 22 µM | GI50 [39]: 3.03 µM | TGI [39]: 10.3 µM | GI50 [40]: 2.86 µM | TGI [40]: 28.2 µM | GI50 [41]: 3.72 µM | TGI [41]: 16.7 µM | GI50 [42]: 2.65 µM | TGI [42]: > 100 µM | GI50 [43]: 2.49 µM | TGI [43]: 9.3 µM | GI50 [44]: 1.43 µM | TGI [44]: 12.8 µM | GI50 [45]: 2.4 µM | TGI [45]: 27.6 µM | GI50 [46]: 2.52 µM | TGI [46]: 24.1 µM | GI50 [47]: 2.56 µM | TGI [47]: > 100 µM | GI50 [48]: 2.6 µM | TGI [48]: 15.4 µM | GI50 [49]: 2.2 µM | TGI [49]: 11.6 µM | GI50 [50]: 2.79 µM | TGI [50]: > 100 µM | GI50 [51]: 2.09 µM | TGI [51]: 10.1 µM | GI50 [52]: 2.59 µM | TGI [52]: 24.3 µM | GI50 [53]: 1.83 µM | TGI [53]: 8.29 µM | GI50 [54]: 4.21 µM | TGI [54]: > 100 µM | GI50 [55]: 1.91 µM | TGI [55]: 11.3 µM | GI50 [56]: 1.88 µM | TGI [56]: > 100 µM | GI50 [57]: 1.22 µM | TGI [57]: 5 µM | GI50 [58]: 0.578 µM | TGI [58]: 9.28 µM | GI50 [59]: 2.5 µM | TGI [59]: 12.4 µM
